Laboratory results as given in patent US4304778A, “4-Aminoquinazoline derivatives having fungicidal, anti-insect and acaricidal properties” (Sankyo Company Limited, priority 1978, dated 1981).

Legend:
Piricularia oryzae = type: in vivo; settings: rice blast; 500 ppm spray; mean, upper two leaves
[1] = tested on: third instar larvae of the tobacco cutworm; assay: Repellent action against the third instar larvae of the tobacco cutworm; type: in vivo; parameters: key: -: no ingestion; ±: very little ingestion; +: some ingestion; ++: considerable ingestion; settings: cabbage leaves dipped in 500 ppm, 72 hours
Excerpt: (§1) In the following Examples, wettable powders prepared according to the procedures of Example 4 were used, each powder containing 50% by weight of the active compound of this invention.
Cabbage leaves were dipped for 30 seconds in an aqueous suspension containing 500 ppm of one of the active compounds shown in Table 6. After air-drying, each leaf was placed into a plastic receptacle having a diameter of 8 cm and the third instar larvae (10 per receptacle) of the tobacco cutworm were released onto the leaves. After 72 hours, the extent of ingestion of the leaves was measured, using two receptacles for each test compound. The results are shown in Table 6, using the following notation (which is also employed, with the same meaning, in following Table 9): […]

guppies = assay: Toxicity to guppies; type: in vivo; settings: LC50 after 48 hours classified
Experimental: In this example the toxicity of the compounds of the invention towards guppies was estimated and is compared with that of corresponding compounds as disclosed and claimed in our co-pending U.S. Application No. 910,117 filed May 30, 1978. The LC50 was determined after 48 hours and the toxicity to guppies was classified into the rankings (i), (ii) and (iii) according to the following classification scheme: […]

Phytophthora infestans = type: in vivo; settings: tomato late blight; 500 ppm; after 5 days; average per leaf
[2] = tested on: final instar larvae of the diamondback moth (Plutella xylostella); assay: Repellent and emergence-inhibition effect on the final instar larvae of diamondback moths; type: in vivo; parameters: key to Extent of ingestion: -: no ingestion; ±: very little ingestion; +: some ingestion; ++: considerable ingestion; settings: 72 hours; for pest or weed control at 500 ppm: Plutella xylostella, read-out: Emergence-inhibition rate (%); for Extent of ingestion: radish leaves dipped in 500 ppm
Excerpt: as §1
Leaves of the Japanese radish (Raphanus sativus) were dipped for 30 seconds into a liquid containing 500 ppm of one of the compounds shown in Table 9. After air-drying the leaves, each leaf was placed into a plastic icecream cup (diameter 8 cm) and 15 final instar larvae of the diamondback moth (Plutella xylostella) were placed into each cup. Each test was conducted in duplicate and the results were averaged.

Sphaerotheca fuliginea = assay: Effect on powdery mildew in cucumbers; type: in vivo; settings: cucumber powdery mildew; 500 ppm; 10 days
Experimental: as §1
Cucumber seedlings (variety Sagamihanshiro), planted two per 12 cm diameter pot, were used as host plants at the stage when the first leaf was fully grown and open. Each test group of three pots was treated with one of the active compounds shown in Table 5 by spraying an aqueous suspension containing 500 ppm of the active compound onto the plants at the rate of 20 ml per 3 pots. After air-drying the plants, the host plants were inoculated with the microorganism Sphaerotheca fuliginea by brushing already infected cucumber leaves with a small brush and letting the microorganism fall onto the host plants. The inoculated plants were kept in a greenhouse at 24°-26° C. for 10 days. At the end of this time, the percentage diseased area was measured.

cockroach larvae = settings: 24 hours; 25° C.
[3] = tested on: cotton aphid (Aphis gossyppi); assay: Effect on the cotton aphid on cucumbers; type: in vivo; settings: 600 ppm; 5 sprayings Sept. 25 to Oct. 30; examined Nov. 9; untreated control 8.7
Excerpt: as §1
Cucumbers (variety "Tokiwa Hikari No. 3, Type P") were transplanted into a plastic greenhouse on September 12. Using a shoulder sprayer, a liquid containing 600 ppm of one of the compounds shown in Table 11 was sprayed on the surface and reverse side of the leaves on Sept. 25, Oct. 9, 16, 23 and 30. On Nov. 9, the effect on the cotton aphid (Aphis gossyppi) was investigated, sampling 25-30 leaves at random from each test area and calculating the number of colonies on each leaf; there were generally 50-100 aphids per colony. The results are shown as the number of colonies per leaf in Table 11, which also gives the results for a test area where no compound of the invention was applied.

[4] = tested on: Colletotrichum lagenarium; assay: Effect on anthracnose in cucumbers; type: in vivo; settings: cucumber anthracnose; 500 ppm; seven days; cotyledon and first leaf
Experimental: as §1
Groups of cucumber plants (variety Sagamihanshiro) were planted, two per pot, in a series of Wagner pots (diameter 12 cm) and were used as host plants when the first leaf was fully grown and open. Each test group of three pots was treated with one of the active compounds shown in Table 4 by spraying an aqueous suspension containing 500 ppm of the active compound onto the plants at the rate of 30 ml per 3 pots. After air-drying the plants, a spore suspension of the pathogenic microorganism Colletotrichum lagenarium was sprayed onto the plants and the plants were kept in a wet room for 24 hours at 20°-22° C. and 100% relative humidity. The pots were then placed in a greenhouse at 26° C. and, seven days after the spore suspension had been sprayed on, the percentage diseased area of the cotyledon and the first leaf was calculated.

SMILES | No. of disease spots per leaf (Piricularia oryzae) [spots per leaf] | Extent of ingestion [1] | Toxicity ranking (guppies) | Diseased area (%) (Phytophthora infestans) | pest or weed control at 500 ppm [2] [%] | Extent of ingestion [2] | Diseased area (%) (Sphaerotheca fuliginea) | Mortality rate (%), 0.5mg test cpd/10 cockroaches/bottle (cockroach larvae) [%] | Mortality rate (%), 1mg test cpd/10 cockroaches/bottle (cockroach larvae) [%] | No. of colonies per leaf [3] [colonies per leaf] | Diseased area (%) [4] [%]
CCCCCCCCc1ccc(C)c(OCCN(C)c2ncnc3ccccc23)c1 [compound 56, 4-{N-methyl-N-[2-(2-methyl-5-octylphenoxy)ethyl]amino}quinazoline] | 3.2 |  |  |  |  |  |  |  |  |  | 
Cc1ccc(OCCN(C)c2ncnc3ccccc23)c(C)c1 [compound 17, 4-{N-[2-(2,4-dimethylphenoxy)ethyl]-N-methylamino}-quinazoline] | 2.4 | + | ii (all fish dead at 10 ppm but alive at 0.5 ppm) | 9 | 50 | ± to + | 0 | 90 | 100 |  | 
CN(CCOCc1ccc(Cl)cc1)c1ncnc2ccccc12 [compound 14, 4-{N-[2-(4-chlorobenzyloxy)ethyl]-N-methylamino}quinazoline] | 1.5 |  |  |  |  |  |  |  |  |  | 
CC(C)c1ccccc1OCCN(C)c1ncnc2ccccc12 [compound 15, 4-{N-[2-(2-isopropylphenoxy)ethyl]-N-methylamino}quinazoline] | 3.0 | ± to + | ii (all fish dead at 10 ppm but alive at 0.5 ppm) | 0 | 60 | ± | 0 | 80 | 100 |  | 
Cc1cc(Cl)ccc1OCCN(C)c1ncnc2ccccc12 [compound 22, 4-{N-[2-(4-chloro-2-methylphenoxy)ethyl]-N-methylamino}quinazoline] |  | ± to + |  | 15 | 80 | ± | 0 | 80 | 100 | 1.1 | 0
Cc1ccc(COCCN(C)c2ncnc3ccccc23)cc1 [compound 13, 4-{N-methyl-N-[2-(4-methylbenzyloxy)ethyl]amino}quinazoline] | 2.9 |  |  |  |  |  |  | 80 | 100 |  | 
CCCCCCN(CCOc1ccccc1C(C)C)c1ncnc2ccccc12 [compound 44, 4-{N-hexyl-N-[2-(2-isopropylphenoxy)ethyl]amino}quinazoline] | 3.1 |  |  |  |  |  |  |  |  |  | 
Cc1ccc(C(C)C)cc1OCCN(C)c1ncnc2ccccc12 [Compound No. 21, 4-{N-[2-(5-isopropyl-2-methylphenoxy)ethyl]-N-methylamino}quinazoline] |  | + |  | 12 | 90 | ± | 0 | 90 | 100 | 1.0 | 0
Cc1ccc(OCCN(C)c2ncnc3ccccc23)cc1 [compound 18, 4-{N-methyl-N-[2-(4-methylphenoxy)ethyl]amino}quinazoline] | 2.6 |  |  | 16 |  |  | 8 | 90 | 100 |  | 
CCCCCCCCc1ccc(OCCN(C)c2ncnc3ccccc23)c(C)c1 [compound 58, 4-{N-methyl-N-[2-(2-methyl-4-octylphenoxy)ethyl]amino}quinazoline] |  | ± to + |  | 10 | 85 | ± |  | 90 | 100 | 0.5 | 
